Source: patent publication US20130295055A1 (priority 2011, published 2013)
Where two headings read alike, the source gives them in different places.

Assays:
Format in all cases: cell-based
[1] = test system: Avian influenza virus AIV0028 (H9N2); conditions: Soft Water (Distilled Water)
Standard strain E. coli = assay: Sterilization effectiveness on E. coli (number of bacteria over time)
Standard strain Listeria = assay: Sterilization effectiveness on Listeria (number of bacteria over time)
[2] = test system: Salmonella typhimurium ATCC 19585 and Salmonella typhimurium ATCC 43174; assay: Sterilization effectiveness on Salmonella (number of bacteria over time)
Procedure: Inhibitory effect was evaluated by measuring total numbers of bacteria over time, and the number of bacteria was expressed as log10 CFU/ml.
Standard strains Salmonella typhimurium ATCC 19585 and Salmonella typhimurium ATCC 43174 were purchased from American Type culture collection, and were incubated in Rappaport-Vassiliadis Soya Peptone Broth (CM0866, Oxoid, the United Kingdom) in a bacterial incubator at 37° C. for 24 hours. Total number of bacteria was measured by diluting strains at stationary phase to 6 to 7 log(cfu/mL).
0.2% peptone water was used as a diluent, and the smeared plate medium was incubated in a 37° C. bacterial incubator for 24 hours, and the number of white single colony was counted. Evaluation was carried out with the average of triplicate.
Malic acid was added to be 0.5%, 1.0%, 2.0%, respectively, to the prepared single colony of Salmonella, and the inhibitory effect on Salmonella over time was examined.

O=C(O)CC(O)(CC(=O)O)C(=O)O [Citric Acid, citric acid]
Avian Influenza Titer ([1]; Citric Acid Concentration 2%, Dilution Rate 1:12.5): 1.25 log 10
Avian Influenza Titer ([1]; Citric Acid Concentration 2%, Dilution Rate 1:25): 2.00 log 10
Avian Influenza Titer ([1]; Citric Acid Concentration 4%, Dilution Rate 1:50): 2.00 log 10
Avian Influenza Titer ([1]; Citric Acid Concentration 6%, Dilution Rate 1:50): 2.00 log 10
Avian Influenza Titer ([1]; Citric Acid Concentration 8%, Dilution Rate 1:50): 0.75 log 10

O=C(O)CC(O)(CC(=O)O)C(=O)O [SAL + BROTH (CA 0.5%), citric acid]
number of E. coli bacteria (Standard strain E. coli; 0 min): 8.72 log10 CFU/ml
number of E. coli bacteria (Standard strain E. coli; 10 min, listed as EC + Broth (CA 0.5%)): 8.70 log10 CFU/ml
number of E. coli bacteria (Standard strain E. coli; 20 min, listed as EC + Broth (CA 0.5%)): 8.64 log10 CFU/ml
number of E. coli bacteria (Standard strain E. coli; 30 min, listed as EC + Broth (CA 0.5%)): 8.66 log10 CFU/ml
number of E. coli bacteria (Standard strain E. coli; 60 min, listed as EC + Broth (CA 0.5%)): 8.67 log10 CFU/ml
number of Listeria bacteria (Standard strain Listeria; 0 min): 8.62 log10 CFU/ml
number of Listeria bacteria (Standard strain Listeria; 10 min, listed as LIS + BROTH (CA 0.5%)): 8.52 log10 CFU/ml
number of Listeria bacteria (Standard strain Listeria; 20 min, listed as LIS + BROTH (CA 0.5%)): 8.48 log10 CFU/ml
number of Listeria bacteria (Standard strain Listeria; 30 min, listed as LIS + BROTH (CA 0.5%)): 8.51 log10 CFU/ml
number of Listeria bacteria (Standard strain Listeria; 60 min, listed as LIS + BROTH (CA 0.5%)): 8.39 log10 CFU/ml

O=C(O)CC(O)(CC(=O)O)C(=O)O [SAL + BROTH (CA 1.0%), citric acid]
number of E. coli bacteria (Standard strain E. coli; 0 min): 8.72 log10 CFU/ml
number of E. coli bacteria (Standard strain E. coli; 10 min, listed as EC + Broth (CA 1.0%)): 8.71 log10 CFU/ml
number of E. coli bacteria (Standard strain E. coli; 20 min, listed as EC + Broth (CA 1.0%)): 8.65 log10 CFU/ml
number of E. coli bacteria (Standard strain E. coli; 30 min, listed as EC + Broth (CA 1.0%)): 8.70 log10 CFU/ml
number of E. coli bacteria (Standard strain E. coli; 60 min, listed as EC + Broth (CA 1.0%)): 8.71 log10 CFU/ml
number of Listeria bacteria (Standard strain Listeria; 0 min): 8.62 log10 CFU/ml
number of Listeria bacteria (Standard strain Listeria; 10 min, listed as LIS + BROTH (CA 1.0%)): 8.47 log10 CFU/ml
number of Listeria bacteria (Standard strain Listeria; 20 min, listed as LIS + BROTH (CA 1.0%)): 8.48 log10 CFU/ml
number of Listeria bacteria (Standard strain Listeria; 30 min, listed as LIS + BROTH (CA 1.0%)): 8.41 log10 CFU/ml
number of Listeria bacteria (Standard strain Listeria; 60 min, listed as LIS + BROTH (CA 1.0%)): 8.42 log10 CFU/ml

O=C(O)CC(O)(CC(=O)O)C(=O)O [SAL + BROTH (CA 2.0%), citric acid]
number of E. coli bacteria (Standard strain E. coli; 0 min): 8.72 log10 CFU/ml
number of E. coli bacteria (Standard strain E. coli; 10 min, listed as EC + Broth (CA 2.0%)): 8.71 log10 CFU/ml
number of E. coli bacteria (Standard strain E. coli; 20 min, listed as EC + Broth (CA 2.0%)): 8.67 log10 CFU/ml
number of E. coli bacteria (Standard strain E. coli; 30 min, listed as EC + Broth (CA 2.0%)): 8.65 log10 CFU/ml
number of E. coli bacteria (Standard strain E. coli; 60 min, listed as EC + Broth (CA 2.0%)): 8.61 log10 CFU/ml
number of Listeria bacteria (Standard strain Listeria; 0 min): 8.62 log10 CFU/ml
number of Listeria bacteria (Standard strain Listeria; 10 min, listed as LIS + BROTH (CA 2.0%)): 8.37 log10 CFU/ml
number of Listeria bacteria (Standard strain Listeria; 20 min, listed as LIS + BROTH (CA 2.0%)): 8.37 log10 CFU/ml
number of Listeria bacteria (Standard strain Listeria; 30 min, listed as LIS + BROTH (CA 2.0%)): 8.38 log10 CFU/ml
number of Listeria bacteria (Standard strain Listeria; 60 min, listed as LIS + BROTH (CA 2.0%)): 8.40 log10 CFU/ml

O=C(O)CC(O)C(=O)O (centres unmarked) [SAL + BROTH (MA 0.5%), malic acid]
number of Salmonella bacteria ([2]; 0 min): 9.02 log10 CFU/ml
number of Salmonella bacteria ([2]; 10 min): 9.04 log10 CFU/ml
number of Salmonella bacteria ([2]; 20 min): 9.05 log10 CFU/ml
number of Salmonella bacteria ([2]; 30 min): 9.04 log10 CFU/ml
number of Salmonella bacteria ([2]; 60 min): 9.09 log10 CFU/ml
number of E. coli bacteria (Standard strain E. coli; 0 min): 8.61 log10 CFU/ml
number of E. coli bacteria (Standard strain E. coli; 10 min, listed as EC + Broth (MA 0.5%)): 8.67 log10 CFU/ml
number of E. coli bacteria (Standard strain E. coli; 20 min, listed as EC + Broth (MA 0.5%)): 8.66 log10 CFU/ml
number of E. coli bacteria (Standard strain E. coli; 30 min, listed as EC + Broth (MA 0.5%)): 8.86 log10 CFU/ml
number of E. coli bacteria (Standard strain E. coli; 60 min, listed as EC + Broth (MA 0.5%)): 8.79 log10 CFU/ml
number of Listeria bacteria (Standard strain Listeria; 0 min): 8.67 log10 CFU/ml
number of Listeria bacteria (Standard strain Listeria; 10 min, listed as LIS + BROTH (MA 0.5%)): 8.55 log10 CFU/ml
number of Listeria bacteria (Standard strain Listeria; 20 min, listed as LIS + BROTH (MA 0.5%)): 8.61 log10 CFU/ml
number of Listeria bacteria (Standard strain Listeria; 30 min, listed as LIS + BROTH (MA 0.5%)): 8.56 log10 CFU/ml
number of Listeria bacteria (Standard strain Listeria; 60 min, listed as LIS + BROTH (MA 0.5%)): 8.58 log10 CFU/ml

O=C(O)CC(O)C(=O)O (centres unmarked) [SAL + BROTH (MA 1.0%), malic acid]
number of Salmonella bacteria ([2]; 0 min): 9.02 log10 CFU/ml
number of Salmonella bacteria ([2]; 10 min): 9.03 log10 CFU/ml
number of Salmonella bacteria ([2]; 20 min): 9.04 log10 CFU/ml
number of Salmonella bacteria ([2]; 30 min): 9.04 log10 CFU/ml
number of Salmonella bacteria ([2]; 60 min): 8.88 log10 CFU/ml
number of E. coli bacteria (Standard strain E. coli; 0 min): 8.61 log10 CFU/ml
number of E. coli bacteria (Standard strain E. coli; 10 min, listed as EC + Broth (MA 1.0%)): 8.78 log10 CFU/ml
number of E. coli bacteria (Standard strain E. coli; 20 min, listed as EC + Broth (MA 1.0%)): 8.74 log10 CFU/ml
number of E. coli bacteria (Standard strain E. coli; 30 min, listed as EC + Broth (MA 1.0%)): 8.77 log10 CFU/ml
number of E. coli bacteria (Standard strain E. coli; 60 min, listed as EC + Broth (MA 1.0%)): 8.94 log10 CFU/ml
number of Listeria bacteria (Standard strain Listeria; 0 min): 8.67 log10 CFU/ml
number of Listeria bacteria (Standard strain Listeria; 10 min, listed as LIS + BROTH(MA 1.0%)): 8.69 log10 CFU/ml
number of Listeria bacteria (Standard strain Listeria; 20 min, listed as LIS + BROTH(MA 1.0%)): 8.60 log10 CFU/ml
number of Listeria bacteria (Standard strain Listeria; 30 min, listed as LIS + BROTH(MA 1.0%)): 8.60 log10 CFU/ml
number of Listeria bacteria (Standard strain Listeria; 60 min, listed as LIS + BROTH(MA 1.0%)): 8.59 log10 CFU/ml

O=C(O)CC(O)C(=O)O (centres unmarked) [SAL + BROTH (MA 2.0%), malic acid]
number of Salmonella bacteria ([2]; 0 min): 9.02 log10 CFU/ml
number of Salmonella bacteria ([2]; 10 min): 8.88 log10 CFU/ml
number of Salmonella bacteria ([2]; 20 min): 8.73 log10 CFU/ml
number of Salmonella bacteria ([2]; 30 min): 8.63 log10 CFU/ml
number of Salmonella bacteria ([2]; 60 min): 7.50 log10 CFU/ml
number of E. coli bacteria (Standard strain E. coli; 0 min): 8.61 log10 CFU/ml
number of E. coli bacteria (Standard strain E. coli; 10 min, listed as EC + Broth (MA 2.0%)): 8.69 log10 CFU/ml
number of E. coli bacteria (Standard strain E. coli; 20 min, listed as EC + Broth (MA 2.0%)): 8.68 log10 CFU/ml
number of E. coli bacteria (Standard strain E. coli; 30 min, listed as EC + Broth (MA 2.0%)): 8.79 log10 CFU/ml
number of E. coli bacteria (Standard strain E. coli; 60 min, listed as EC + Broth (MA 2.0%)): 8.63 log10 CFU/ml
number of Listeria bacteria (Standard strain Listeria; 0 min): 8.67 log10 CFU/ml
number of Listeria bacteria (Standard strain Listeria; 10 min, listed as LIS + BROTH(MA 2.0%)): 8.51 log10 CFU/ml
number of Listeria bacteria (Standard strain Listeria; 20 min, listed as LIS + BROTH(MA 2.0%)): 8.62 log10 CFU/ml
number of Listeria bacteria (Standard strain Listeria; 30 min, listed as LIS + BROTH(MA 2.0%)): 8.55 log10 CFU/ml
number of Listeria bacteria (Standard strain Listeria; 60 min, listed as LIS + BROTH(MA 2.0%)): 8.61 log10 CFU/ml
